Experimental findings from patent US8921405B2, “Compounds” (Orexo AB, priority 2009, dated 2014) are described below.

Structures are written as SMILES.

The assay addresses T1, recombinant human mPGES-1 (Homo sapiens, UniProt O14684).
T1 construct: made in house; host or cells: Rosetta E. coli (membrane/microsome fraction)
T1 sequence (O14684 1-152): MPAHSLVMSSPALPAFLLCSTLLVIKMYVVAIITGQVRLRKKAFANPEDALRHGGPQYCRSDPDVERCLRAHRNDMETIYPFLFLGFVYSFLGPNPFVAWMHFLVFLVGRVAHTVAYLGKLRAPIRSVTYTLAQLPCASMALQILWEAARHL
Briefly: mPGES-1 HTRF assay (inhibition of PGE2 formation from PGH2). Format: biochemical. Conditions: HTRF assay. Summed up: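 Microsomes of E. coli expressing human mPGES-1, in 0.1 M KPi pH 7.4 with 2.5 mM GSH, preincubated 25 min at room temperature with inhibitor, then given PGH2 for 1 min before FeCl2 acidic stop. PGE2 quantified by HTRF (665/620 nm ratio) against synthetic PGE2 standard curve; percent inhibition versus controls.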
(Time-resolved FRET reads energy transfer from a long-lived donor to a nearby acceptor.)
As usually defined, the IC50 is the concentration that inhibits the measured activity by half. For the compound `CN(C)CCn1c(Nc2cc(CNC(=O)C3(C(F)(F)F)CC3)ccc2Cl)nc2cc(C(=O)Nc3ccc(Br)cc3)ccc21` [Example 70, N-(4-Bromo-phenyl)-2-(2-chloro-5-{[(1-trifluoromethyl-cyclopropanecarbonyl)-amino]-methyl}-phenylamino)-1-(2-(dimethylamino)ethyl)-1H-benzimidazole-5-carboxylic acid amide], the IC50 came out at 3 nM.
As for `COCCn1c(Nc2cc(CNC(=O)C3(C(F)(F)F)CC3)ccc2Cl)nc2cc(C(=O)Nc3ccc(Br)cc3)ccc21` [Example 71, N-(4-Bromo-phenyl)-2-(2-chloro-5-{[(1-trifluoromethyl-cyclopropanecarbonyl)-amino]-methyl}-phenylamino)-1-(2-methoxyethyl)-1H-benzimidazole-5-carboxylic acid amide], the figure is 2 nM; as for `Cn1c(Nc2cc(CNC(=O)C(C)(F)F)ccc2Cl)nc2cc(C(=O)Nc3ccc(Br)cc3)c(OCC(F)F)cc21` [Example 72, N-(4-Bromo-phenyl)-2-(2-chloro-5-{[(1,1-difluoro-ethylcarbonyl)-amino]-methyl}-phenylamino)-6-(2,2-difluoro-ethoxy)-1-methyl-1H-benzimidazole-5-carboxylic acid amide], 3 nM; as for `CC(C(=O)NCc1ccc(Cl)c(Nc2nc3cc(C(=O)Nc4ccc(Br)cc4)c(OCC(F)F)cc3n2C)c1)C(F)(F)F` (stereo not shown) [Example 73, N-(4-Bromo-phenyl)-2-(2-chloro-5-{[(1-trifluoromethyl-ethyl-carbonyl)-amino]-methyl}-phenylamino)-6-(2,2-difluoro-ethoxy)-1-methyl-1H-benzimidazole-5-carboxylic acid amide], 3 nM.
With `Cn1c(Nc2cc(CNC(=O)c3c(F)cccc3Cl)ccc2Cl)nc2cc(C(=O)Nc3ccc(Br)cc3)c(OCC(F)F)cc21` [Example 74, N-(4-Bromo-phenyl)-2-(2-chloro-5-{[(2-chloro-6-fluorophenylcarbonyl)-amino]-methyl}-phenylamino)-6-(2,2-difluoro-ethoxy)-1-methyl-1H-benzimidazole-5-carboxylic acid amide], the IC50 is 4 nM.
As for `Cn1c(Nc2cc(CNC(=O)C(C)(N)C(F)(F)F)ccc2Cl)nc2cc(C(=O)Nc3ccc(Br)cc3)c(OCC(F)F)cc21` (stereo not shown) [Example 75, N-(4-Bromo-phenyl)-2-(2-chloro-5-{[(1-amino-1-trifluoromethyl-ethyl-carbonyl)-amino]-methyl}-phenylamino)-6-(2,2-difluoro-ethoxy)-1-methyl-1H-benzimidazole-5-carboxylic acid amide], the figure is 3 nM; as for `Cn1c(Nc2cc(CNC(=O)C3(O)CC3)ccc2Cl)nc2cc(C(=O)Nc3ccc(Br)cc3)c(OCC(F)F)cc21` [Example 76, N-(4-Bromo-phenyl)-2-(2-chloro-5-{[(1-hydroxycyclopropanecarbonyl)-amino]-methyl}-phenylamino)-6-(2,2-difluoro-ethoxy)-1-methyl-1H-benzimidazole-5-carboxylic acid amide], 3 nM.
As for `Cn1c(Nc2cc(CNC(=O)C(C)(C)C(F)(F)F)ccc2Cl)nc2cc(C(=O)Nc3ccc(Br)cc3)c(OCC(F)F)cc21` [Example 77, N-(4-Bromo-phenyl)-2-(2-chloro-5-{[(1-methyl-1-trifluoromethyl-ethylcarbonyl)-amino]-methyl}-phenylamino)-6-(2,2-difluoro-ethoxy)-1-methyl-1H-benzimidazole-5-carboxylic acid amide], the figure is 4 nM; as for `CC(=O)NCc1ccc(Cl)c(Nc2nc3cc(C(=O)Nc4ccc(Br)cc4)c(OCC(F)F)cc3n2C)c1` [Example 79, N-(4-Bromo-phenyl)-2-(2-chloro-5-{[(methylcarbonyl)-amino]-methyl}-phenylamino)-6-(2,2-difluoro-ethoxy)-1-methyl-1H-benzimidazole-5-carboxylic acid amide], 4 nM; as for `Cn1c(Nc2cc(CNC(=O)C3CC3)ccc2Cl)nc2cc(C(=O)Nc3ccc(Br)cc3)c(OCC(F)F)cc21` [Example 80, N-(4-Bromo-phenyl)-2-(2-chloro-5-{[(cyclopropylcarbonyl)-amino]-methyl}-phenylamino)-6-(2,2-difluoro-ethoxy)-1-methyl-1H-benzimidazole-5-carboxylic acid amide], 9 nM.
For `Cn1c(Nc2cc(CN[S+]([O-])C(C)(C)C)ccc2Cl)nc2cc(C(=O)Nc3ccc(Br)cc3)c(OCC(F)F)cc21` (stereo not shown) [Example 81, N-(4-Bromo-phenyl)-2-(2-chloro-5-{[(tert-butylsulfinyl)-amino]-methyl}-phenylamino)-6-(2,2-difluoro-ethoxy)-1-methyl-1H-benzimidazole-5-carboxylic acid amide] the value was 2 nM.
Consider `Cn1c(Nc2cc(CNS(=O)(=O)C(C)(C)C)ccc2Cl)nc2cc(C(=O)Nc3ccc(Br)cc3)c(OCC(F)F)cc21` [Example 82, N-(4-Bromo-phenyl)-2-(2-chloro-5-{[(tert-butylsulfonyl)-amino]-methyl}-phenylamino)-6-(2,2-difluoro-ethoxy)-1-methyl-1H-benzimidazole-5-carboxylic acid amide], for which the IC50 came out at 3 nM.
As for `Cn1c(Nc2cc(CNC(=O)C3(C(F)(F)F)CC3)ccc2C(F)(F)F)nc2cc(C(=O)Nc3ccc(Br)cc3)c(OCC(F)F)cc21` [Example 83, N-(4-Bromo-phenyl)-2-(2-trifluoromethyl-5-{[(1-trifluoromethyl-cyclopropanecarbonyl)-amino]-methyl}-phenylamino)-6-(2,2-difluoro-ethoxy)-1-methyl-1H-benzimidazole-5-carboxylic acid amide], the figure is 3 nM; as for `Cn1c(Nc2cc(CNC(=O)C3(C(F)(F)F)CC3)c(F)cc2Cl)nc2cc(C(=O)N[C@H]3CC[C@H](C(F)(F)F)CC3)c(OCC(F)F)cc21` [Example 84, 2-(2-Chloro-4-fluoro-5-{[(1-(trifluoromethyl)cyclopropanecarbonyl)amino]methyl}-phenylamino)-6-(2,2-difluoroethoxy)-1-methyl-N-(trans-4-trifluoromethyl-cyclohex-1-yl)-1 H-benzo[d]imidazole-5-carboxamide], 4 nM; as for `Cn1c(Nc2cc(CNC(=O)C3(C(F)(F)F)CC3)c(F)cc2Cl)nc2cc(C(=O)Nc3ccc(Br)cc3)c(OCC(F)F)cc21` [Example 85, N-(4-Bromophenyl)-2-(2-chloro-4-fluoro-5-{[(1-trifluoromethyl-cyclopropanecarbonyl)amino]methyl}phenylamino)-6-(2,2-difluoroethoxy)-1-methyl-1H-benzo[d]imidazole-5-carboxamide], 2 nM.
In the case of `Cn1c(Nc2cc(CNC(=O)C(C)(C)C)ccc2Cl)nc2cc(C(=O)Nc3ccc(F)c(Cl)c3)c(OCC(F)F)cc21` [Example 86, N-(3-Chloro-4-fluoro-phenyl)-2-(2-chloro-5-{[(tert-butylcarbonyl)-amino]-methyl}-phenylamino)-6-(2,2-difluoro-ethoxy)-1-methyl-1H-benzimidazole-5-carboxylic acid amide], the IC50 is 1 nM.
As for `Cn1c(Nc2cc(CNC(=O)C(C)(C)C)ccc2Cl)nc2cc(C(=O)NCC3CC3(C)C)c(OCC(F)F)cc21` (stereo not shown) [Example 88, N-(2,2-Dimethylcyclopropyl-methyl)-2-(2-chloro-5-{[(tert-butylcarbonyl)-amino]-methyl}-phenylamino)-6-(2,2-difluoro-ethoxy)-1-methyl-1H-benzimidazole-5-carboxylic acid amide], the figure is 2 nM.
As for `Cn1c(Nc2cc(CNC(=O)C(C)(C)C)ccc2Cl)nc2cc(C(=O)NCC3CCC3)c(OCC(F)F)cc21` [Example 89, N-(Cyclobutylmethyl)-2-(2-chloro-5-{[(tert-butylcarbonyl)-amino]-methyl}-phenylamino)-6-(2,2-difluoro-ethoxy)-1-methyl-1H-benzimidazole-5-carboxylic acid amide], the figure is 2 nM.
For `Cn1c(Nc2cc(CNC(=O)C(C)(C)C)ccc2Cl)nc2cc(C(=O)NCC#Cc3ccccc3)c(OCC(F)F)cc21` [Example 90, N-(3-Phenylpropargyl)-2-(2-chloro-5-{[(tert-butylcarbonyl)-amino]-methyl}-phenylamino)-6-(2,2-difluoro-ethoxy)-1-methyl-1H-benzimidazole-5-carboxylic acid amide], the IC50 stood at 1 nM.
For `COc1cc2[nH]c(Nc3cc(CNC(=O)OC(C)(C)C)ccc3C(F)(F)F)nc2cc1C(=O)N[C@H]1CC[C@H](C(F)(F)F)CC1` [Example 91, 2-({5-[(tert.Butoxycarbonyl)amino]methyl}-2-trifluoromethyl-phenylamino)-6-methoxy-N-(trans-4-trifluoromethyl-cyclohex-1-yl)-1H-benzo[d]imidazole-5-carboxamide] the value was 4 nM.
For `COc1cc2[nH]c(Nc3cc(CNC(=O)C(N)C(F)(F)F)ccc3C(F)(F)F)nc2cc1C(=O)N[C@H]1CC[C@H](C(F)(F)F)CC1` (stereo partly drawn) [Example 92, 2-({5-[(2-Amino-3,3,3-trifluoro-propionyl)amino]methyl}-2-trifluoromethyl-phenylamino)-6-methoxy-N-(trans-4-trifluoromethyl-cyclohex-1-yl)-1H-benzo[d]imidazole-5-carboxamide] the value was 7 nM.
For `COc1cc2[nH]c(Nc3cc(CNC(=O)C4(C(F)(F)F)CC4)ccc3C(F)(F)F)nc2cc1C(=O)N[C@H]1CC[C@H](C(F)(F)F)CC1` [Example 93, N-(trans-4-Trifluoromethyl-cyclohex-1-yl)-2-(2-trifluoromethyl-5-{[(1-trifluoromethylcyclopropane-carbonyl)amino]-methyl}-phenylamino)-6-methoxy-1H-benzimidazole-5-carboxylic acid amide] the value was 2 nM.
